Experimental data reported in patent publication US20040087561A1, “Treatment of sexual dysfunction” (priority 2000, published 2004).

Key:
[1] = test system: ovariectomised female Sprague Dawley rats; assay: Plasma sexual hormone levels (radioimmunoassay) in ovariectomised female rats; format: in vivo, rat
Experimental: Ovariectomised adult female Sprague Dawley rats (180-200 g) were housed in groups of 6 in a reversed lighting system of 12 h light:dark (lights off 7.00-19.00 h). They were used for the experiments at least two weeks after ovariectomy. Forty eight hours before tests, the animals were primed with oestradiol benzoate (5 μg/0.1 ml in corn oil, s.c.). Progesterone (0.5 mg/0.1 ml, in corn oil, s.c.) was administered 4 h before blood collection, as a positive control. Compound (1) (3-10 mg/kg, i.p.) was administered in 50% 2-hydroxypropyl-β-cyclodextrin, 1 h prior to blood collection. Blood was collected from the trunk, after decapitation. It was immediately centrifuged (3500 r.p.m., 4° C., 5 min) and the plasmas frozen until assayed for hormonal content, using commercially available radioimmunoassay kits (^125I-labelled hormones) for oestradiol, progesterone, LH, FSH and prolactin.

[2] = test system: ovariectomised female Sprague Dawley rats; assay: Inhibition of female rat sexual proceptivity by NMB and its antagonism; format: in vivo; details: pre-treatment 15 mg/kg i.p. 1 h before NMB 100 ng i.c.v.; progesterone-treated rats; blockade not total
Experimental: Ovariectomised female rats (Sprague Dawley, obtained from Charles River, UK) were stereotaxically implanted (coordinates 0.89 mm behind Bregma, 1.3 mm lateral and 2.5 mm vertical) with stainless steel cannulae (6 mm long, O.D. 0.75 mm), held in place with dental cement. Animals were housed in groups of three and returned to a reversed lighting system of 12 h light:dark (lights off 5.00-17.00 h). Correct placement of the cannulae was assessed post-mortem. Rats were used for tests two weeks after ovariectomy (one week after cannulation). The experiments started at least 5 h into the dark period. Forty eight hours before tests, the animals were primed with 5 μg oestradiol benzoate (OB) (s.c, in corn oil) and adapted to the apparatus (in the absence of stimuli animals) for 10 min on 2 consecutive days prior testing. The 10 min test was carried out as previously described. The difference in the percentage of time spent investigating male minus female was calculated, out of the total time spent investigating stimuli.
Progesterone (Prog, 0.5 mg/0.1 ml) was dissolved in corn oil and administered subcutaneously (s.c.), 4 h before test, to induce proceptive behaviour. Compound (1) (15 mg/kg, i.p.) was dissolved in 50% 2-hydroxypropyl-β-cyclodextrin in saline and administered 1 h before the i.c.v. administration. Neuromedin B was obtained from Bachem, UK. It was dissolved in isotonic saline and administered i.c.v. over a 30 sec period, with the aid of a pump set to deliver a flow of 10 μl/min, 10 min before tests. The dosing volume was 5 μl/rat. Each rat received a total amount of 100 ng.
From the present study we can conclude that stimulation of BB1 receptors with an agonist results in inhibition of proceptive behaviour. This inhibitory effect may be prevented by the presence of an antagonist. e.g. Compound (1) In FIG. 5 the bars represent percentage of time spent investigating male, minus the percentage of time spent investigating the female stimuli+SEM, (n=8-12 per group). ***P<0.001 vs progesterone (One-way ANOVA followed by Dunnett's test).

[3] = test system: Female New Zealand rabbits; assay: Pelvic nerve-stimulated female genital blood flow, anaesthetised rabbit model of sexual arousal; format: in vivo; details: 15 mg/kg sc
Experimental: Female New Zealand rabbits (2.5 kg) were pre-medicated with a combination of Medetomidine (Domitor®) 0.5 ml/kg im., and Ketamine (Vetalar®) 0.25 ml/kg i.m. whilst maintaining oxygen intake via a face mask. The rabbits were tracheotomised using a Portex™ uncuffed endotracheal tube 3 ID., connected to ventilator and maintained at a ventilation rate of 30-40 breaths per minute, with an approximate tidal volume of 18-20 ml, and a maximum airway pressure of 10 cm H2O. Anaesthesia was then switched to Isoflurane and ventilation continued with O2 at 2 l/min. The right marginal ear vein was cannulated using a 23G or 24G catheter, and Lactated Ringer solution perfused at 0.5 ml/min. The rabbit was maintained at 3% Isoflurane during invasive surgery, dropping to 2% for maintenance anaesthesia.
The left groin area of the rabbit was shaved and a vertical incision was made approximately 5 cm in length along the thigh. […] Systolic and diastolic pressures were measured, and the mean arterial pressure calculated using the formula (diastolic ×2+systolic)÷3. Heart rate was measured via the pulse oxymeter and Po-ne-mah data acquisition software system (Ponemah Physiology Platform, Gould Instrument Systems Inc). […] A frequency response curve was determined at the start of each experiment in order to determine the optimum frequency to use as a sub-maximal response, normally 4 Hz. […]

[4] = Compound (1) 3-10 mg/kg 1 h, progesterone 0.5 mg/0.1 ml s.c. 4 h before blood collection, vs vehicle
[5] = Compound (1) 3-10 mg/kg, 1 h before blood collection

In the case of `COc1ccc(C2(CNC(=O)[C@](C)(Cc3c[nH]c4ccccc34)NC(=O)Nc3ccc([N+](=O)[O-])cc3)CCCCC2)nc1` [Compound (1), (S) 3-(1H-Indol-3-yl)-N-[1-(5-methoxy-pyridin-2-yl)-cyclohexyl-methyl]-2-methyl-2-[3-(4-nitro-phenyl)-ureido]-propionamide], the LH plasma levels [1, 4] is reported as “no effect”, the progesterone plasma levels [1, 4] is reported as “no effect” and the FSH plasma levels [1, 5] is reported as “no effect”. The oestradiol plasma levels [1, 5] was “no effect”, the prolactin plasma levels [1, 5] was “no effect” and the “antagonism of the inhibitory effect of NMB on proceptivity” value [2] was “prevented the inhibitory effect of NMB”. The “pelvic-nerve stimulated (PNS) increases in genital (vaginal and clitoral) blood flow” value [3] was “potent enhancer”.
